Data published in the supplement of paper PMC10307832.

What was measured:
Assay in all cases: relative viability (nuclei count vs DMSO), 5 days (fraction); higher = more cells survive
DM3189 = compound: C1CN(CCN1)C2=CC=C(C=C2)C3=CN4C(=C(C=N4)C5=CC=NC6=CC=CC=C56)N=C3 [DM3189]
Summary of the method: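 Only plates meeting two conditions passed: control CV below 25% and at least one doubling. Lung cancer cell lines, kept overnight at 37 °C in 1536-well plates, were pinned with five library-drug doses (not always all listed) √10 apart on vehicle-anchored plates and grown 5 days without medium change. A one-step fix, permeabilisation and Hoechst stain preceded 4× imaging and MetaXpress nuclear counting. Viability equals treated-well nuclei divided by vehicle-well nuclei, as the median over plates.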

DM3189 + Luminespib = compound: C1CN(CCN1)C2=CC=C(C=C2)C3=CN4C(=C(C=N4)C5=CC=NC6=CC=CC=C56)N=C3 [DM3189] + CCNC(=O)c1noc(-c2cc(C(C)C)c(O)cc2O)c1-c1ccc(CN2CCOCC2)cc1 [Luminespib] (partner 0.01 µM)
Summary of the method: (§1)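 Relative viability is defined as nuclei in treated wells over nuclei in vehicle wells. Duplicate plates were run and medians reported. Lung cancer cell lines in 1536-well plates were dosed by pin tool one day after seeding, with one drug or with a fixed anchor-drug dose plus five library-drug doses (not always all listed) in √10 steps, and nuclei were counted after 5 days.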

DM3189 + Crizotinib = compound: C1CN(CCN1)C2=CC=C(C=C2)C3=CN4C(=C(C=N4)C5=CC=NC6=CC=CC=C56)N=C3 [DM3189] + C[C@@H](Oc1cc(-c2cnn(C3CCNCC3)c2)cnc1N)c1c(Cl)ccc(F)c1Cl [Crizotinib] (partner 1 µM)
Summary of the method: as §1

DM3189 + Linsitinib = compound: C1CN(CCN1)C2=CC=C(C=C2)C3=CN4C(=C(C=N4)C5=CC=NC6=CC=CC=C56)N=C3 [DM3189] + C[C@]1(O)C[C@@H](c2nc(-c3ccc4ccc(-c5ccccc5)nc4c3)c3c(N)nccn32)C1 [Linsitinib] (partner 1 µM)
Summary of the method: as §1

DM3189 + Vorinostat = compound: C1CN(CCN1)C2=CC=C(C=C2)C3=CN4C(=C(C=N4)C5=CC=NC6=CC=CC=C56)N=C3 [DM3189] + O=C(CCCCCCC(=O)Nc1ccccc1)NO [Vorinostat] (partner 1 µM)
Summary of the method: as §1

Cell Line | relative viability (DM3189; 0.08 µM) | relative viability (DM3189; 0.253 µM) | relative viability (DM3189; 0.8 µM) | relative viability (DM3189; 2.53 µM) | relative viability (DM3189 + Luminespib; first compound 0.08 µM) | relative viability (DM3189 + Luminespib; first compound 0.253 µM) | relative viability (DM3189 + Luminespib; first compound 0.8 µM) | relative viability (DM3189 + Luminespib; first compound 2.53 µM) | relative viability (DM3189 + Crizotinib; first compound 0.08 µM) | relative viability (DM3189 + Crizotinib; first compound 0.253 µM) | relative viability (DM3189 + Crizotinib; first compound 0.8 µM) | relative viability (DM3189 + Crizotinib; first compound 2.53 µM) | relative viability (DM3189 + Linsitinib; first compound 0.08 µM) | relative viability (DM3189 + Linsitinib; first compound 0.253 µM) | relative viability (DM3189 + Linsitinib; first compound 0.8 µM) | relative viability (DM3189 + Linsitinib; first compound 2.53 µM) | relative viability (DM3189 + Vorinostat; first compound 0.08 µM) | relative viability (DM3189 + Vorinostat; first compound 0.253 µM) | relative viability (DM3189 + Vorinostat; first compound 0.8 µM) | relative viability (DM3189 + Vorinostat; first compound 2.53 µM)
NCI-H1355 | 1.01 | 0.968 | 0.842 | 0.951 | 0.621 | 0.674 | 0.626 | 0.602 | 1.14 | 1.12 | 0.955 | 0.971 | 0.785 | 0.793 | 0.663 | 0.738 | 0.64 | 0.636 | 0.504 | 0.565
NCI-H1437 | 1.05 | 0.995 | 0.989 | 1 | 1.15 | 1.1 | 1.1 | 1.1 | 0.904 | 0.898 | 0.832 | 0.831 | 1.05 | 1.06 | 0.966 | 0.893 | 0.917 | 0.916 | 0.843 | 1.05
NCI-H1651 | 1.03 | 1.02 | 0.96 | 1.16 | 0.811 | 0.836 | 0.779 | 1.01 | 0.857 | 0.886 | 0.878 | 0.957 | 1.09 | 1.02 | 1.21 | 0.991 | 0.657 | 0.587 | 0.549 | 0.629
NCI-H1666 | 1.04 | 1.02 | 1.1 | 1.12 | 1.15 | 0.983 | 1.05 | 1.07 | 1.07 | 1.01 | 0.965 | 0.8 | 0.861 | 0.808 | 0.842 | 1.04 | 1.04 | 1.02 | 1.09 | 
NCI-H1734 | 1.13 | 0.95 | 0.916 | 0.888 | 0.202 | 0.226 | 0.207 | 0.199 | 0.585 | 0.695 | 0.676 | 0.657 | 1.01 | 0.981 | 0.814 | 0.968 | 0.842 | 0.805 | 0.718 | 0.59
NCI-H1755 | 0.989 | 0.987 | 0.811 | 1.04 | 0.384 | 0.476 | 0.425 | 0.419 | 0.768 | 0.837 | 0.736 | 0.818 | 1.02 | 0.911 | 0.881 | 0.934 | 0.771 | 0.659 | 0.695 | 0.685
NCI-H1915 | 1.03 | 0.942 | 0.793 | 0.87 | 0.697 | 0.817 | 0.606 | 0.485 | 0.879 | 0.79 | 0.808 | 0.783 | 1.12 | 1.05 | 0.928 | 1.11 | 0.49 | 0.508 | 0.383 | 0.482
NCI-H1944 | 1.19 | 0.991 |  | 1.02 | 0.813 | 0.673 |  | 0.684 | 1.25 | 1 |  | 1.22 | 1.26 | 1.19 |  | 1.21 | 0.592 | 0.567 | 0.467 | 0.565
NCI-H1975 | 1.07 | 0.972 | 0.793 | 0.881 | 0.302 | 0.254 | 0.162 | 0.263 | 1.1 | 0.928 | 0.819 | 0.647 | 1.18 | 0.955 | 0.929 | 0.727 | 0.803 | 0.732 | 0.701 | 0.687
NCI-H1993 | 1.01 | 0.913 | 0.831 | 1.05 | 0.785 | 0.705 | 0.712 | 0.885 |  | 0.846 | 0.744 | 0.991 |  | 0.616 | 0.641 | 0.706 | 0.856 | 0.803 | 0.813 | 0.854
NCI-H2009 | 1.1 | 1.03 | 0.893 | 1.05 | 1.06 | 1.01 | 0.932 | 1.06 | 1.07 | 1.03 | 0.933 | 0.922 | 1.24 | 1.21 | 1.11 | 1.29 | 0.705 | 0.647 | 0.733 | 0.888
NCI-H2023 | 1 | 0.955 | 0.978 | 0.854 | 0.811 | 0.863 | 1.09 | 0.663 | 0.68 | 0.729 | 0.631 | 0.502 | 0.683 | 0.694 | 0.496 | 0.667 | 0.688 | 0.618 | 0.603 | 0.604
NCI-H2085 | 1 | 0.933 | 1.04 | 1.03 | 0.359 | 0.389 | 0.478 | 0.951 | 0.941 | 0.807 | 0.872 | 0.752 | 0.932 | 0.858 | 0.973 | 0.946 | 0.87 | 0.742 | 0.795 | 0.906
NCI-H2087 | 1.26 | 1.02 | 1.08 | 0.979 | 0.187 | 0.145 | 0.139 | 0.176 | 0.894 | 0.695 | 0.788 | 0.79 | 1.06 | 0.909 | 1.11 | 0.969 | 0.63 | 0.49 | 0.682 | 0.471
NCI-H2126 | 1.12 | 1.01 | 0.961 | 0.942 | 1.13 | 0.875 | 0.913 | 0.889 | 1.07 | 0.989 | 0.98 | 1.06 | 0.708 | 0.799 | 0.779 | 0.799 | 0.998 | 0.769 | 0.742 | 0.705
NCI-H2228 | 1.18 | 1.1 | 0.811 | 0.447 | 0.112 | 0.132 | 0.144 | 0.167 | 0.695 | 0.363 | 0.385 | 0.14 | 0.68 | 0.763 | 0.572 | 0.66 | 0.541 | 0.773 | 0.593 | 0.279
NCI-H2347 | 1.2 | 1.03 | 0.945 | 1.02 | 0.671 | 0.504 | 0.565 | 0.485 | 0.692 | 0.761 | 0.67 | 0.675 | 0.98 | 1 | 0.907 | 0.97 | 0.554 | 0.626 | 0.61 | 0.658
NCI-H2405 | 1.1 | 0.975 | 0.951 | 1.03 | 0.704 | 0.754 | 0.646 | 0.491 | 0.867 | 0.855 | 0.775 | 0.855 | 0.909 | 0.922 | 0.792 | 0.878 | 1.16 | 1 | 0.942 | 0.992
NCI-H3122 | 0.992 | 0.901 | 0.905 | 0.975 | 0.0997 | 0.103 | 0.072 | 0.0922 | 0.237 | 0.204 | 0.261 | 0.259 | 0.939 | 0.907 | 0.876 | 0.933 | 0.992 | 0.74 | 0.841 | 1.11
PC-3 [JPC-3] | 1.13 | 1.01 | 1.04 | 1.1 | 0.725 | 0.705 | 0.694 | 0.512 | 1.05 | 1.04 | 1.04 | 1.12 | 0.975 | 0.91 | 0.972 | 1.06 | 1.08 | 0.736 | 0.921 | 0.898
PC-14 | 1.14 | 0.954 | 0.871 | 0.932 | 0.161 | 0.154 | 0.152 | 0.154 | 0.807 | 0.914 | 0.791 | 0.862 | 1.03 | 0.953 | 0.903 | 0.879 | 0.733 | 0.7 | 0.674 | 0.533
RERF-LC-KJ | 1.16 | 1.04 | 1.04 | 1.05 | 1.37 | 1.3 | 1.46 | 1.19 | 0.887 | 0.812 | 0.863 | 0.885 | 0.932 | 0.879 | 0.861 | 0.978 | 0.858 | 0.729 | 0.661 | 0.715
SK-LU-1 | 1.03 | 0.793 | 0.814 | 0.749 | 0.181 | 0.194 | 0.176 | 0.196 | 0.714 | 0.868 | 0.676 | 0.522 | 0.888 | 0.688 | 0.667 | 0.524 | 0.742 | 0.749 | 0.728 | 0.598
SK-MES-1 | 1.04 | 0.981 | 0.853 | 0.94 | 0.848 | 0.82 | 0.611 | 0.412 | 1.05 | 0.885 | 0.69 | 0.918 | 1.11 | 0.981 | 0.97 | 0.944 | 1.34 | 1.01 | 0.787 | 0.875
SW 1573 | 1.06 | 0.938 | 0.903 | 0.81 | 0.261 | 0.232 | 0.192 | 0.33 | 0.87 | 0.801 | 0.717 | 0.767 | 0.887 | 0.771 | 0.626 | 0.738 | 0.786 | 0.761 | 0.633 | 0.337
UMC-11 | 1.05 | 0.958 | 0.816 | 0.795 | 1.01 | 0.986 | 0.882 | 0.685 | 0.499 | 0.477 | 0.538 | 0.414 | 1.09 | 0.986 | 1.03 | 0.959 | 0.356 | 0.349 | 0.358 | 0.281
